Entries after “also recorded” stand apart in the source; their conditions may differ. Non-standard residues stand in square brackets, D forms with d. Residues, ends and D or L forms follow the SMILES beside them. *: point of attachment. Phe(F5) = N[C@@H](Cc1c(F)c(F)c(F)c(F)c1F)C(=O)O; hArg = N=C(N)NCCCC[C@H](N)C(=O)O; 12Ado = NCCCCCCCCCCCC(=O)O; Nle = CCCC[C@H](N)C(=O)O; Orn = NCCC[C@H](N)C(=O)O; Abu = CC[C@H](N)C(=O)O; PhAc = O=C(Cc1ccccc1)*
Assays:
[1] = tested on: gene expression in normal mouse lung fibroblasts; assay: RNAseq of cultured lung fibroblasts; type: cell-based; conditions: 1 and 5 μM MIA-602, not exposed to bleomycin
Experimental: Lung fibroblasts. Newborn mouse lung fibroblasts (Mlg 2908) were obtained from the American Type Culture Collection, Manassas, Va. and cultured in Eagle's minimal essential medium. Cells were grown in 6-well plates before incubation with 1 or 5 μM MIA-602 or vehicle, RNA isolation, and oxygen consumption measurements.
RNA was extracted from cultured fibroblasts using a Direct-zol RNA MicroPrep kit (R2060; Zymo Research, Irvine, Calif.). Cells were washed with PBS and lysed in TRIreagent™, then purified using Direct-zol RNA columns. DNase I treatment was done in columns and RNA eluted in DNase/Rnase-free water.
(§1) RNAseq and Pathway analyses. At least 10 ng of total RNA was used as input for the KAPA RNA HyperPrep Kit with RiboErase (HMR) to create ribosomal RNA-depleted sequencing libraries, including sample indexing, to allow for multiplexing. Cluster generation and sequencing was done on the Illumina cBOT and HiSeq 3000 using reagents provided by Illumina, finally generating >32 million single-end 100 base reads per sample.

[2] = tested on: gene expression in mouse lung tissue; assay: RNAseq and pathway analysis of lung tissue of bleomycin-treated mice; type: in vivo, C57Bl/6J mice; conditions: bleomycin 28 days, MIA-602 vs vehicle
Experimental: RNA isolation. RNA was extracted from fixed lung tissue in paraffin blocks using a Quick-RNA™ FFPE Kit (R1008, Zymo Research, Irvine, Calif.) following the manufacturer's protocol (Patel P, Selvarajah S, Guerard K, Bartlett J, Lapointe J, Berman D, Okello J, Park P (2017). PLoS ONE 12:e0179732). Samples were deparaffinized, digested with proteinase K and decrosslinked at 65° C. for 15 minutes. RNA lysis buffer was added and mixed with ethanol. The mixtures were transferred to spin columns to isolate total RNA.
as §1
De-multiplexed FASTQ files were created with Illumina supplied scripts in BCL2FASTQ software (v2.17). […]
Gene counts were normalized using trimmed mean of M-values (TMM) method. Differential expression between groups was calculated with the exact test implemented in edgeR (Robinson M, McCarthy D, Smyth G (2010). Bioinformatics 26:139-140). […]

CCCC[C@H](NC(=O)[C@@H](NC(=O)[C@H](CC(=O)O)NC(=O)[C@H](CCC(N)=O)NC(=O)[C@H](CC(C)C)NC(=O)[C@H](CC(C)C)NC(=O)[C@H](CCCN)NC(=O)[C@H](Cc1c[nH]cn1)NC(=O)[C@H](C)NC(=O)[C@H](CO)NC(=O)[C@H](CC(C)C)NC(=O)[C@H](CCC(N)=O)NC(=O)[C@H](CC)NC(=O)[C@H](CC(C)C)NC(=O)[C@@H](NC(=O)[C@H](CCCN)NC(=O)[C@H](Cc1c[nH]cn1)NC(=O)[C@H](Cc1ccc(OC)cc1)NC(=O)[C@H](CCCCNC(=N)N)NC(=O)[C@H](C)NC(=O)[C@@H](NC(=O)[C@H](Cc1c(F)c(F)c(F)c(F)c1F)NC(=O)[C@@H](NC(=O)[C@H](C)NC(=O)[C@H](CC(=O)O)NC(=O)[C@@H](CCCNC(=N)N)NC(=O)[C@H](Cc1ccc(O)cc1)NC(=O)CCCCCCCCCCCNC(=O)Cc1ccccc1)[C@@H](C)CC)[C@@H](C)O)C(C)C)[C@@H](C)CC)C(=O)N[C@H](CCCNC(=N)N)C(=O)N[C@@H](CCCCNC(=N)N)C(N)=O [MIA-602, PhAC-Ada, Tyr D-Arg, Asp, Ala, Ile, 5FPhe, Thr, Ala, Har, Tyr(Me), His, Orn, Val, Leu, Abu, Gin, Leu, Ser, Ala, His, Om, Leu, Leu, Gin, Asp, Ile; Nle, D-Arg, Har NH2, reference compound] ({PhAc-12Ado}-Y[dR]DAI[Phe(F5)]TA[hArg]Y(Me)H[Orn]VL[Abu]QLSAH[Orn]LLQDI[Nle][dR][hArg]-NH2)
fibroblast gene expression, RNA-seq (in words) [1]: significant downregulation of genes involved in collagen fibril organization, cell-matrix adhesion and elastic fiber assembly | lung gene expression, RNA-seq pathway analysis (in words) [2]: suppression of the adaptive immune response, T cell differentiation and activation and cytokine production; also recorded: downregulation of T cell receptor complex genes (CD3E, CD3G, CD4, and CD8A)

From US20210395327A1, “Growth Hormone-Releasing Hormone Antagonists and Uses Thereof” (United States Government As Represented By The Department …, priority 2019, published 2021)
